Data reported in patent US6331555A, “Treatment of platelet derived growth factor related disorders such as cancers” (priority 1999, dated 2001).

Key:
T98G cells = assay: PDGF-stimulated DNA synthesis, T98G cells (3H-thymidine); assay type: cell-based, human; conditions: 50 ng/ml PDGF-BB
Procedure: T98G cells in log phase growth were transferred to 96-well dishes at 20,000 cells in 200 μL of serum-containing growth medium. After an overnight attachment period, the monolayers were washed twice with 200 μL MCDB 105 medium and the cells were cultured in 200 μL serum-free MCDB 105 medium for 24 hr. […] The plates were incubated at 37° C. at ambient CO2 for approximately 18 hr. ^3 H-thymidine (Amersham, 5 Ci/mmol) was added to each well to yield a final concentration of 5 μCi/mL and the plates were returned to 37° C. incubator. After 4 hr the medium was removed, the plates were put onto ice, and washed twice with 200 μL ice-cold PBS per well. Radioactivity incorporated into DNA was separated from unincorporated ^3 H-thymidine by precipitation with 100 μL ice-cold TCA for 10 min on ice. […] Six mL of cocktail (Ready Safe, Beckman) was added and radioactivity quantified in a Beckman liquid scintillation counter model LS6000SC. […]
The effect on basal ^3 H-thymidine incorporation was determined in the absence of PDGF. […] Radioactivity incorporated into DNA was separated from unincorporated ^3 H-thymidine by precipitation with […] ice-cold TCA for 10 minutes. […] Six ml of cocktail (Ready Safe, Beckman) was added and radioactivity quantified in a Beckman liquid scintillation counter model LS6000 SC.

PDGF-R = assay: PDGF-BB-stimulated PDGF-R autophosphorylation, C6 cells, western blot; assay type: cell-based, rat; set-up: PDGF stimulated receptor phosphorylation: dose or concentration left out as unconfirmed
Procedure: For western blotting, cells were plated in 2 mL growth medium into 6-well dishes (500,000 cells per well) and allowed to attach overnight. The medium was replaced with 2 mL MCDB 105 (UCSF Cell Culture Facility) supplemented with 1% FBS. The plates were then incubated overnight at 37° C., ambient CO2. […] After a 7 min incubation at room temperature with ligand, the plates were put on ice and washed three times with 1 mL ice-cold PBS plus 1 mM orthovanadate. Lysis was achieved by pipetting cells in 0.5 mL of buffer containing 50 mM Tris, pH 7.4, 10% glycerol, 1% NP-40, 2 mM EDTA, 1 mM sodium vanadate (Na3 VO4), 10 mM pyrophosphate, 1 mM PMSF, 10 mg/mL aprotinin, 10 mg/mL leupeptin. […] The integrity of the protein-to-membrane transfer was determined by staining with 1% Ponceau S in 5% acetic acid for 5 min. […] Phosphotyresine was detected by incubating the membrane (1 hr at room temperature) with an anti-phosphotyosine antiserum diluted in blocking buffer at 1:3000. […]
Proteins were then separated by SDS-polyacrylamide gel electrophoresis (PAGE). […] The level of phosphorylated tyrosine was determined by quantitating the amount of bound anti-phosphotyrosine. Quantitation was carried out by peak area integration using a Molecular Dynamics Computing Densitometer (Model 300S), and Image Quant v3.0 software (Molecule Dynamics). […]

## Cc1oncc1C(=O)Nc1ccc(C(F)(F)F)cc1 [Compound A10, 5-methylisoxazole-4 carboxylic acid-(4-trifluromethyl)-anilide]
T98G cells
  PDGF-stimulated DNA synthesis: decreased PDGF-stimulated DNA synthesis in both types of cells, however a greater effect was seen in human T98G glioblastoma cells
PDGF-R; 200 mM A10, 20 ng/ml PDGF-BB
  reduction of PDGF-R phosphorylation: reduced PDGF-R phosphorylation below that occurring in the absence of PDGF-BB stimulation
PDGF-R; increasing concentrations (50, 100)
  PDGF stimulated receptor phosphorylation: reduced PDGF stimulated receptor phosphorylation
